Test system: JAK1-dependent signaling pathway (IFNα induced pSTAT1) in human whole blood
Test: tissue or blood
Details: read-out: pIC50 for inhibiting the INFα induced increase of pSTAT1 levels (converted)
Method: The samples were incubated at 37° C. for 30 min.
Absorbance was measured at 450 nm.

With `O=C(Nc1nc2cccc(-c3ccc(CN4CCS(=O)(=O)CC4)cc3)n2n1)C1CC1` [Compound 1, Cyclopropanecarboxylic acid {5-[4-(1,1-dioxo-1-thiomorpholin-4-ylmethyl)-phenyl]-[1,2,4]triazolo [1,5-a]pyridin-2-yl}-amide] the IC50 was 589 nM.

Source: patent publication US8563545B2, “Compound useful for the treatment of degenerative and inflammatory diseases” (Galapagos NV, priority 2009, dated 2013)
